Patent US12685733B2, “Indole molecules and use thereof in the inhibition of DNA polymerases” (BioVentures, LLC, priority 2019, dated 2026)
pIC50: −log10 of the molar value. Like-named read-outs stand apart in the source and are kept apart here.

Columns and labels:
Tb pol I = target: T1, Tb pol I (Mycobacterium tuberculosis, UniProt P9WNU5); assay: Fluorescence-based polymerase assay, other pol families; format: biochemical; conditions: 10 μM; 10 nM Tb pol I (A-family)
T1 construct: made in house

hpol η = target: T2, hpol η (Homo sapiens, UniProt Q9Y253); assay: Fluorescence-based DNA polymerase activity assay; format: biochemical; conditions: for pIC50: 95% confidence interval in parentheses, read-out: IC50 for inhibition of hpol η
T2 construct: hpol η (residues 1-437); made in house
T2 sequence (Q9Y253 1-437): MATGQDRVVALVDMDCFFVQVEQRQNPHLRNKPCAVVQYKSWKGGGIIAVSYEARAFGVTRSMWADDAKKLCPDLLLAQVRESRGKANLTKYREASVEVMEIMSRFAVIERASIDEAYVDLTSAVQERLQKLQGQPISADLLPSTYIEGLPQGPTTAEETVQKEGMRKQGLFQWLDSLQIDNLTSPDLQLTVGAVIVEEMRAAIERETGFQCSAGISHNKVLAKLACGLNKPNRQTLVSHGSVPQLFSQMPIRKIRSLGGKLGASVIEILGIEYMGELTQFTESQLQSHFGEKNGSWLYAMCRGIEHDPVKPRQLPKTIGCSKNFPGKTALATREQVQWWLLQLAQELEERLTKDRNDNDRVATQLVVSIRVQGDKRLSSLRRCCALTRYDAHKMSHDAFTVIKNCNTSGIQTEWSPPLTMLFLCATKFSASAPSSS
From the text: The impact of IAG-10 on the affinity of hpol κ for DNA was an important insight and one that had not been observed previously with MK-886. It was reasoned that decreasing the concentration of either enzyme or DNA, might affect the IC50 value by shifting the equilibrium away from the formation of binary hpol c: DNA complex and toward the enzyme-inhibitor complex. To investigate this idea, the concentration of hpol and p/t-DNA was varied in the reaction mixture and measured the IC50 value for IAG-10. Decreasing the enzyme and DNA in solution led to a dramatic decrease in the IC50 for IAG-10 against hpol κ (FIG. 4A). […] Then, similar experiments were performed with hpol η by varying the concentration of enzyme and DNA in the reaction mixture an determining the IC50 value for IAG-10-mediated inhibition.

hpol κ = target: T3, hpol κ (Homo sapiens, UniProt Q9UBT6); assay: HPG labeling (chemical footprinting) with LC-MS; design: hpol κ (residues 19-526); made in house; conditions: IAG-10 20 and 100 μM added
T3 sequence (Q9UBT6 19-526): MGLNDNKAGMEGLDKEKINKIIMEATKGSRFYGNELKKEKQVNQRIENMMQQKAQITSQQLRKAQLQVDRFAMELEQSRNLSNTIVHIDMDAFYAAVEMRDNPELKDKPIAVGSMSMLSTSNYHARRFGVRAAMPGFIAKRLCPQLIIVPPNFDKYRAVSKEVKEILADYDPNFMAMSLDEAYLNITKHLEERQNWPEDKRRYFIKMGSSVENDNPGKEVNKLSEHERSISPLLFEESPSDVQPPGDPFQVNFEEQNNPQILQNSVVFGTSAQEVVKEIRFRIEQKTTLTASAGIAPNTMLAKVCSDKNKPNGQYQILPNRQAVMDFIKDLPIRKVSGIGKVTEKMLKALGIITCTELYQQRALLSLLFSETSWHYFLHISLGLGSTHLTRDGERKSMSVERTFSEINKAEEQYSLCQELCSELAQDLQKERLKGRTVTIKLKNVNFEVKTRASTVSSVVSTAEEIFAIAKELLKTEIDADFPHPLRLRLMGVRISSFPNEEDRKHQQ
Procedure: HPG is a commonly used amino-acid modifier, which when reacted with a protein, modifies the L-arginine side chains selectively. HPG labeling experiments were performed with hpol κ (10 μM) in the presence or absence of UAMS-48. Briefly, hpol κ was pre-incubated with either 20 μM (1:2 molar ratio) or 100 μM (1:10 molar ratio) IAG-10 for 10 mins at 37° C. in 50 mM HEPES buffer (pH 7.8) containing 200 mM NaCl, 10 mM MgCl2, and 10% v/v DMSO. The HPG labeling was carried out at 37° C. in the dark for 1 hr by adding 500 μM of HPG to the pre-incubated reaction mix, followed by addition of 200 mM of free L-arginine to quench the reaction after 1 hr. […]
The peak intensity was then quantified manually using the corresponding m/z value and the relative abundance for each modified peptide was calculated as a function of area under the peak in Xcalibur™ software (ThermoFisher Scientific). The percentage of modified arginine measured by mass spectrometry was calculated as a fraction of total arginine (i.e. unmodified+HPG modified) quantified for a specific residue. […]
Next, Chemical footprinting was used in an effort to ascertain the binding site of IAG-10 on hpol κ. […] After quenching the reaction and gel electrophoresis, the modified protein was trypsin-digested, and the resulting peptides were analyzed by LC-MS. […]

hpol β = target: T4, hpol β (Homo sapiens, UniProt P06746); assay: Fluorescence-based polymerase assay, other pol families; format: biochemical; conditions: 10 μM; 1 nM hpol β (X-family)
T4 construct: gift of Dr. Samuel Wilson (NIEHS)

T1 sequence (P9WNU5 whole entry): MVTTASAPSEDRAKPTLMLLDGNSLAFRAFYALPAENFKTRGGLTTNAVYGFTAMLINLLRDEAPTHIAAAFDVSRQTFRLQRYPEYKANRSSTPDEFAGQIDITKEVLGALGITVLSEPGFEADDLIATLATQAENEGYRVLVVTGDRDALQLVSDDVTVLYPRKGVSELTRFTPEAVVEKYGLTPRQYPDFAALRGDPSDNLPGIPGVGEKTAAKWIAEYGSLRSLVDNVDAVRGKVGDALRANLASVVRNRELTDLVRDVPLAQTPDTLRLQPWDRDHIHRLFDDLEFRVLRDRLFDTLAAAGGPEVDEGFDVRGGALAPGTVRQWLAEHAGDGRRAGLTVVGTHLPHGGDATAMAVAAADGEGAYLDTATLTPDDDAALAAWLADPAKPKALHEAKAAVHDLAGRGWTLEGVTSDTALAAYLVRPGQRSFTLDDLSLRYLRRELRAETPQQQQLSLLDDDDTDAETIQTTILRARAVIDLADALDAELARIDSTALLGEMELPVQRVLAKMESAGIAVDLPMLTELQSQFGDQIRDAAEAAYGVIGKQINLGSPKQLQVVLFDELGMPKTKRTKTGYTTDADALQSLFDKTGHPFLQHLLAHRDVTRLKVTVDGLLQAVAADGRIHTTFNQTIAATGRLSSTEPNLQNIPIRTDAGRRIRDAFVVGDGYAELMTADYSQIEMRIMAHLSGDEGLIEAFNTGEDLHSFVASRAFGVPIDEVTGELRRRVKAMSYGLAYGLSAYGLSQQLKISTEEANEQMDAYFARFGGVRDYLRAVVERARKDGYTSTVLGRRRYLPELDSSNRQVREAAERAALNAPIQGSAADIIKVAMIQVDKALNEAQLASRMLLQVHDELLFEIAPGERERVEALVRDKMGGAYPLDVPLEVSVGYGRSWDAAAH

Cl.[H]/N=C(\N)NN=Cc1cn(C(=O)c2cccc3ccccc23)c2ccc(Cl)cc12 [IAG-10, (E)-2-((1-(1-naphthoyl)-5-chloro-1H-indol-3-y1)methylene)hydrazine-1-carboximidamide hydrochloride]
polymerase activity relative to DMSO control (Tb pol I): only hpol κ activity was inhibited
pIC50 (hpol η; 2 nM DNA): 4.65
pIC50 (hpol η; 50 nM DNA): 4.84
Michaelis constant, hpol η (hpol η; steady-state kinetics with increasing inhibitor concentration): linear increase
turnover number (kcat), hpol η (hpol η; steady-state kinetics with varying inhibitor concentration): no measurable change
decrease in the fraction of HPG-modified peptides (Arg145, Arg149, Arg505) (hpol κ): > 50%
fraction of HPG-modified peptides containing Arg48 (hpol κ): large increase
polymerase activity relative to DMSO control (hpol β): only hpol κ activity was inhibited
